From patent US12479847B2 (DANA-FARBER CANCER INSTITUTE, INC., priority 2019, dated 2025)

Legend:
Test in all cases: KINOMEscan (ScanMAX) kinase profiling
Assay type in all cases: binding
panel of 468 kinases [1] = biological target: T1, panel of 468 kinases (Homo sapiens, UniProt O43683); conditions: BUB1; 1 μM; read-out: % control
T1 construct: purchased KINOMEscan (ScanMAX) service

panel of 468 kinases [2] = biological target: T2, panel of 468 kinases (Plasmodium falciparum, UniProt P61075); conditions: PFPK5(P.falciparum); 1 μM; read-out: % control
T2 construct: purchased KINOMEscan (ScanMAX) service

panel of 468 kinases [3] = biological target: T3, panel of 468 kinases (Homo sapiens, UniProt Q96NX5); conditions: CAMK1G; 1 μM; read-out: % control
T3 construct: purchased KINOMEscan (ScanMAX) service

panel of 468 kinases [4] = biological target: T4, panel of 468 kinases (Homo sapiens, UniProt Q9H2K8); conditions: TAOK3; 1 μM; read-out: % control
T4 construct: purchased KINOMEscan (ScanMAX) service
T4 sequence (Q9H2K8 1-898): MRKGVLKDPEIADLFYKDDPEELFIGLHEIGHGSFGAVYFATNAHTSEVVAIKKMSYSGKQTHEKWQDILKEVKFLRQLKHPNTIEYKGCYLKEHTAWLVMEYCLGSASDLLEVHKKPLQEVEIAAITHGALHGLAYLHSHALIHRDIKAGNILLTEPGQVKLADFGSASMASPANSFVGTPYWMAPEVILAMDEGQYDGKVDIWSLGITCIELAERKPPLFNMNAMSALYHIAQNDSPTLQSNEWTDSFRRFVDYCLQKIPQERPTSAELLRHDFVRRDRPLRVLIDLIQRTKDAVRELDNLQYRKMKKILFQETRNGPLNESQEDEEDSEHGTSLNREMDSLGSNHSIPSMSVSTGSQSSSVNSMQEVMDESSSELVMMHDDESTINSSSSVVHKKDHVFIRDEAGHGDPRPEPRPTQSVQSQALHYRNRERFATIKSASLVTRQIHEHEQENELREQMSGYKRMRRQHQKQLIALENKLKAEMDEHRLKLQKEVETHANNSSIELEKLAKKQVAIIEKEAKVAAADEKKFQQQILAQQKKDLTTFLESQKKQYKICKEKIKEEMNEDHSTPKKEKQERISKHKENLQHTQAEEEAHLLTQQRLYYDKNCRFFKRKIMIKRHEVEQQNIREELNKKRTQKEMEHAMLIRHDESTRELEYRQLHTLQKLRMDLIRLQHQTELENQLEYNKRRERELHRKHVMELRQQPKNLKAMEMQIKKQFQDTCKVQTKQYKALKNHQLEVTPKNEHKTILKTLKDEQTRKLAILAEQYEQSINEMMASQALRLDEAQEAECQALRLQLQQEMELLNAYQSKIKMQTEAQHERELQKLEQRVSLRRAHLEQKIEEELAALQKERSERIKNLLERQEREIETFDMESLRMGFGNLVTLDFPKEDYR

panel of 468 kinases [5] = biological target: T5, panel of 468 kinases (Homo sapiens, UniProt P49760); conditions: CLK2; 1 μM; read-out: % control
T5 construct: purchased KINOMEscan (ScanMAX) service

panel of 468 kinases [6] = biological target: T6, panel of 468 kinases (Homo sapiens, UniProt P54756); conditions: EPHA5; 1 μM; read-out: % control
T6 construct: purchased KINOMEscan (ScanMAX) service

panel of 468 kinases [7] = biological target: T7, panel of 468 kinases (Homo sapiens, UniProt P35626); conditions: GRK3; 1 μM; read-out: % control
T7 construct: purchased KINOMEscan (ScanMAX) service
T7 sequence (P35626 1-688): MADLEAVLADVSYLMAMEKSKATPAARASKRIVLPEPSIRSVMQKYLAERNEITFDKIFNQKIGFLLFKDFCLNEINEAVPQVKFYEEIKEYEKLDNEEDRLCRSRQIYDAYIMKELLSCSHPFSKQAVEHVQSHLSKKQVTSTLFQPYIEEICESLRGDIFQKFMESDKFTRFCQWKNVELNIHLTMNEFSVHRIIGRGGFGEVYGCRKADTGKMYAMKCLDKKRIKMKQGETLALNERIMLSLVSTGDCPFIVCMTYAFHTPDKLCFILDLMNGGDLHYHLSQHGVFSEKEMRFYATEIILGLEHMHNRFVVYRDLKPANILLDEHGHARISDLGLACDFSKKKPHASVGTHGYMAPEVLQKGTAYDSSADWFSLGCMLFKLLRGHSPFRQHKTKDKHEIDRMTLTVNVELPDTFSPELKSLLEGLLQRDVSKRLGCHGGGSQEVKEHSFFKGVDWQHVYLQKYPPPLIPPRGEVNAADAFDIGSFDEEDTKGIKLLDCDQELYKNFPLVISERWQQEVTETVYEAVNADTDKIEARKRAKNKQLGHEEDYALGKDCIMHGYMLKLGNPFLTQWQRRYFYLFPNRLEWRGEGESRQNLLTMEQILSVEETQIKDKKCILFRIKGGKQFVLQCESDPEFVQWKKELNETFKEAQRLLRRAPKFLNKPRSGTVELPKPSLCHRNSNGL

panel of 468 kinases [8] = biological target: T8, panel of 468 kinases (Homo sapiens, UniProt P10721, V559D); conditions: KIT(V559D); 1 μM; read-out: % control
T8 construct: purchased KINOMEscan (ScanMAX) service

panel of 468 kinases [9] = biological target: T9, panel of 468 kinases (Homo sapiens, UniProt P36897); conditions: TGFBR1; 1 μM; read-out: % control
T9 construct: purchased KINOMEscan (ScanMAX) service
T9 sequence (P36897 34-503): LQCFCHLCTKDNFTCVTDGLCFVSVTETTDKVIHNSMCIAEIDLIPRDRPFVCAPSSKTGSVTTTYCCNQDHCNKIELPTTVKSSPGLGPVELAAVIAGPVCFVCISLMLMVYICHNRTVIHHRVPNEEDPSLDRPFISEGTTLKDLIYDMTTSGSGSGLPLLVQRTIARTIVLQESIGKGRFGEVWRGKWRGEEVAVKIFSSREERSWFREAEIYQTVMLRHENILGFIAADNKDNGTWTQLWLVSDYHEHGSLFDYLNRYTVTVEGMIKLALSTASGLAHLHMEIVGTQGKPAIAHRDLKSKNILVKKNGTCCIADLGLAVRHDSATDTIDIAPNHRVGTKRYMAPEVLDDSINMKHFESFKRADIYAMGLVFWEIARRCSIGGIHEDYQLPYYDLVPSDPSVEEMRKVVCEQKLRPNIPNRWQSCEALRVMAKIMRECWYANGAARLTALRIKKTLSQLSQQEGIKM

T1 sequence (O43683 whole entry): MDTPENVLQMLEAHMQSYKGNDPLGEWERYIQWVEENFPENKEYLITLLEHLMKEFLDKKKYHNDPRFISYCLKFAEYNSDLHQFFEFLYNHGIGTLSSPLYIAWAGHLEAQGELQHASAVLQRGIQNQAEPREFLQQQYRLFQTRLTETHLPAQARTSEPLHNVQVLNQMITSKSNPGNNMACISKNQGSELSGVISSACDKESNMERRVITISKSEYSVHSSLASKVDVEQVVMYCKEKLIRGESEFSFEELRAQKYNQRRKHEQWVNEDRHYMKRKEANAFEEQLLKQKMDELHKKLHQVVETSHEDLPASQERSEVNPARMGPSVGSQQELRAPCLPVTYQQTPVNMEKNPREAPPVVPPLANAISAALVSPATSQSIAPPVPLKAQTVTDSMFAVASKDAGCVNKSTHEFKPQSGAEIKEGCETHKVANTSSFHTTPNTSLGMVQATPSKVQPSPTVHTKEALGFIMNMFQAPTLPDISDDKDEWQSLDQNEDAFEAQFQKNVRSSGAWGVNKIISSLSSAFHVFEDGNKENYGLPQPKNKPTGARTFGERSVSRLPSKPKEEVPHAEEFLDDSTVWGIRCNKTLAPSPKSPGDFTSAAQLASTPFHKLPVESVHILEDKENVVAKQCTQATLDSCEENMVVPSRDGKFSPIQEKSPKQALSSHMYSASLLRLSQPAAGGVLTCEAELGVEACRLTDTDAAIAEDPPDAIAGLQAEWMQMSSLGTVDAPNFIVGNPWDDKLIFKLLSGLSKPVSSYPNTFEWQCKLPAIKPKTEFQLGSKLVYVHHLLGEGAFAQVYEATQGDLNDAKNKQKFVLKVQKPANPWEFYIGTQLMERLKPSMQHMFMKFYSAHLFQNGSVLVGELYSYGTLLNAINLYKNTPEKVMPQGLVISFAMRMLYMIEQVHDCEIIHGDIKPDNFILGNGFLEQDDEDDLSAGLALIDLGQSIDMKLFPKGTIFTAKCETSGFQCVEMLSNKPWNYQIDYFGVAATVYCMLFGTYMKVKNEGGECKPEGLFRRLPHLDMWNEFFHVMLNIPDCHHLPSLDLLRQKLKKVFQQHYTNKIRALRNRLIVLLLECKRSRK
T5 sequence (P49760 whole entry): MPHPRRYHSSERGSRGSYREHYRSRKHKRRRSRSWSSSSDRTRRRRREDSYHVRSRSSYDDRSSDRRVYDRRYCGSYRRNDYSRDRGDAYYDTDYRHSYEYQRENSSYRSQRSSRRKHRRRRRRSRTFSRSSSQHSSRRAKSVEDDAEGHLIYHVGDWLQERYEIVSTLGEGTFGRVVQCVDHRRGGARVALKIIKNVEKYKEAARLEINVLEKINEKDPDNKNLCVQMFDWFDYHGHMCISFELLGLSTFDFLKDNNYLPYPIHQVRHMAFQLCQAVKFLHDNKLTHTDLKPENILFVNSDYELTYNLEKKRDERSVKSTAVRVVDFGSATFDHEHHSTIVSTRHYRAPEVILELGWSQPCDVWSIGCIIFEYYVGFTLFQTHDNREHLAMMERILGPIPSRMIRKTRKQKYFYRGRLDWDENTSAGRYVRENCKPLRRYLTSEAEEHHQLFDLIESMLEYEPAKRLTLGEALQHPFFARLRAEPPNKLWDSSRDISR
T8 sequence (P10721 26-976 V559D): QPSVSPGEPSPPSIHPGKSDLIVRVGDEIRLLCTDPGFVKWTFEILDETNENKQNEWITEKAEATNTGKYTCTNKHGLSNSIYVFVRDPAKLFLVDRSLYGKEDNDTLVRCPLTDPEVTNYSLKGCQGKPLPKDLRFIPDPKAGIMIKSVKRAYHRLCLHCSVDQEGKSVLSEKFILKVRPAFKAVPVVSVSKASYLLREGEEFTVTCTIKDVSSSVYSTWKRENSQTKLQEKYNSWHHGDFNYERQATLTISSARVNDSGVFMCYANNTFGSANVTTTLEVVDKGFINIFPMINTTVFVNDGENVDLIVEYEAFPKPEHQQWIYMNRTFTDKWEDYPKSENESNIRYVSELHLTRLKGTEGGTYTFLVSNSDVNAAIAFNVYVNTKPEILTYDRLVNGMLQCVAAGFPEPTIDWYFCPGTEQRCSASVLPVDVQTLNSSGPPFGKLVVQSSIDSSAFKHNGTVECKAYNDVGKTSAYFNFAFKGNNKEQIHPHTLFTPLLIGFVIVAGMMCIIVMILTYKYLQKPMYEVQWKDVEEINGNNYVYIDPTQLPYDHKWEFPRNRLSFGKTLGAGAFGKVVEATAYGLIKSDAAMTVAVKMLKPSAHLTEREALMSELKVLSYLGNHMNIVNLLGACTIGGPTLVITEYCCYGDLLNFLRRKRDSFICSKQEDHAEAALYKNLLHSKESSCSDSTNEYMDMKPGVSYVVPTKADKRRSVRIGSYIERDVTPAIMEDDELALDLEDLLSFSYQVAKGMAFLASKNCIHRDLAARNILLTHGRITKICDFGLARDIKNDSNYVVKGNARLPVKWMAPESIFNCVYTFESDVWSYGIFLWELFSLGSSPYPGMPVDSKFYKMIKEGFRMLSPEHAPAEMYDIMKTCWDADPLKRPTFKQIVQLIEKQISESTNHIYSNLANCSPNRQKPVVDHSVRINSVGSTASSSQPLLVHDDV
T2 sequence (P61075 whole entry): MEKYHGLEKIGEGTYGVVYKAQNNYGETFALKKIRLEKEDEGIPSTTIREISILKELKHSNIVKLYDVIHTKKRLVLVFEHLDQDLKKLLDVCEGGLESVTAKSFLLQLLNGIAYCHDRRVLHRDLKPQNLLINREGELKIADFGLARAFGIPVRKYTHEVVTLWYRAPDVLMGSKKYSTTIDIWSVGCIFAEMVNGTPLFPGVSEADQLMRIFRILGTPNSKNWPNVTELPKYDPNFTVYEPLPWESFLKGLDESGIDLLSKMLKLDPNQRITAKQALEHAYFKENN
T3 sequence (Q96NX5 whole entry): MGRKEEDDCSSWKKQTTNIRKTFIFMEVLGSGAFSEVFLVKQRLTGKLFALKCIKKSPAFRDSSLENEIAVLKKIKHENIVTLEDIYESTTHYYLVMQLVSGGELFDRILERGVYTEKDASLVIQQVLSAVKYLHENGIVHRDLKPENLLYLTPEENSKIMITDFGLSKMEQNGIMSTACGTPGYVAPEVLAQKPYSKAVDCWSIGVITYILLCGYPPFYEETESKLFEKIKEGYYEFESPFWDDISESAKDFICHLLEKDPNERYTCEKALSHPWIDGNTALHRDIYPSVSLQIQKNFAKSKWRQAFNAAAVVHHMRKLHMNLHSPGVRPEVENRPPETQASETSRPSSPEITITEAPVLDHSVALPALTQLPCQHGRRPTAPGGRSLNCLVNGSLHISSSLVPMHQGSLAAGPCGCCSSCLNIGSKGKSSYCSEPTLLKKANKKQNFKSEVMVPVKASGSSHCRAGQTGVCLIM
T6 sequence (P54756 25-1037): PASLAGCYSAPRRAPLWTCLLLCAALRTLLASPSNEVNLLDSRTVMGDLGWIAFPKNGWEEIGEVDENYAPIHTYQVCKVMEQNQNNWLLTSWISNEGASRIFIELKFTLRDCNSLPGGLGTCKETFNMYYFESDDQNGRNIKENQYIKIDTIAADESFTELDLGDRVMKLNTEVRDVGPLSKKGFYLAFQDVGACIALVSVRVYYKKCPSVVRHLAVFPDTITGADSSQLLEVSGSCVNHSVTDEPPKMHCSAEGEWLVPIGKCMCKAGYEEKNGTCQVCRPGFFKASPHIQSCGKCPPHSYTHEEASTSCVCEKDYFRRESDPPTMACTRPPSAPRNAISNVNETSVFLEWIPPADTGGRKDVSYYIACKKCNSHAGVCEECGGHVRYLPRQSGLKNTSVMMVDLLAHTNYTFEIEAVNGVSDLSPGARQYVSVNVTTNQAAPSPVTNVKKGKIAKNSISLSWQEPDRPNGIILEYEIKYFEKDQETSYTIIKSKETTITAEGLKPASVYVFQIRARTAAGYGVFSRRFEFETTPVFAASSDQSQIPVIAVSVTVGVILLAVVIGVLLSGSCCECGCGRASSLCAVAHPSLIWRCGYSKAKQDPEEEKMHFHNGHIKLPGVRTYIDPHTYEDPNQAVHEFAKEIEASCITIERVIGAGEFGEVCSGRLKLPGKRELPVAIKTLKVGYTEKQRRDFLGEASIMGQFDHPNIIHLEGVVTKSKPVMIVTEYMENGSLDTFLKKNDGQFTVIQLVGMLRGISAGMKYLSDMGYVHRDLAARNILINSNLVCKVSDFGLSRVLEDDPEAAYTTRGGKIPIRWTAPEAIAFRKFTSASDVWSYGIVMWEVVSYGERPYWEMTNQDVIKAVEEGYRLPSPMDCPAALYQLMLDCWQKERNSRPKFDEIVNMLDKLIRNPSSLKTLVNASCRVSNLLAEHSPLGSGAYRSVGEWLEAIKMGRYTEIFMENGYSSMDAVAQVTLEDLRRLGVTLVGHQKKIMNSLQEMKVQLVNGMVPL

| Structure (SMILES) | remaining binding at 1 µM (panel of 468 kinases [1]) | remaining binding at 1 µM (panel of 468 kinases [2]) | remaining binding at 1 µM (panel of 468 kinases [3]) | remaining binding at 1 µM (panel of 468 kinases [4]) | remaining binding at 1 µM (panel of 468 kinases [5]) | remaining binding at 1 µM (panel of 468 kinases [6]) | remaining binding at 1 µM (panel of 468 kinases [7]) | remaining binding at 1 µM (panel of 468 kinases [8]) | remaining binding at 1 µM (panel of 468 kinases [9]) |
| --- | --- | --- | --- | --- | --- | --- | --- | --- | --- |
| CNc1nc(Nc2ccc(C(=O)N3CCC(N4CCOCC4)CC3)c3c2OCO3)nc2[nH]cc(Cl)c12 [Compound 75, (7-((5-chloro-4-(methylamino)-7H-pyrrolo[2,3-d]pyrimidin-2-yl)amino)benzo[d][1,3]dioxol-4-yl)(4-morpholinopiperidin-1-yl)methanone] | 49% | 65% | 73% | 83% | 21% | 100% | 78% | 39% | 68% |
| CNc1nc(Nc2ccc(S(=O)(=O)N3CCC(N4CCOCC4)CC3)cc2OC)nc2[nH]cc(Cl)c12 [Compound 12, 5-chloro-N2-(2-methoxy-4-((4-morpholinopiperidin-1-yl)sulfonyl)phenyl)-N4-methyl-7H-pyrrolo[2,3-d]pyrimidine-2,4-diamine] | 60% | 64% | 96% | 85% | 55% | 100% | 100% | 80% | 86% |
| CNc1nc(Nc2ccc(P3(=O)CCN(C4CCOCC4)CC3)cc2OC)nc2[nH]cc(Cl)c12 [Compound 77, 4-(4-((5-chloro-4-(methylamino)-7H-pyrrolo[2,3-d]pyrimidin-2-yl)amino)-3-methoxyphenyl)-1-(tetrahydro-2H-pyran-4-yl)-1,4-azaphosphinane 4-oxide] | 61% | 75% | 65% | 84% | 28% | 100% | 82% | 90% | 72% |
